Measurements as given in patent US20180170776A1, “ANTI-MICROBIAL ADDITIVE FOR USE IN FLOWER VASE WATER” (Enhold B.V., priority 2008, published 2018).

Experiments:
[1] = tested on: mixed bouquet of 12 flowers; test: Flower life of a mixed bouquet of cut flowers in a vase with 1 litre of solution; format: in vivo, Rosa, Chrysanthemum santini, Gerbera, Antirrhinum, Solidago; conditions: 1 litre solution, 20° C., 12 per 24 hours of 1000 lux, additions per litre of base solution (BZC 30 ppm, GOX 100 SRU)
Description: A mixed bouquet of 12 flowers composed as follows: was placed in a vase with 1 litre of solution. The solution was either tap water or an aqueous base solution containing 10 g/1 of a composition containing 94.66% glucose, 5% citric acid, 0.34% conventional biocides. […] The vases with flowers were placed under 12 per 24 hours of 1000 lux, at 20° C.

bacterial contamination = test: Bacterial contamination after 7 days; format: cell-based; conditions: for CFU (bacterial contamination after 7 days): below 10 hardly or not contaminated, above 1,000 heavily contaminated, additions per litre of base solution (BZC 30 ppm, GOX 100 SRU); for effect on bacterial contamination (in words): summary of the table
Description: was placed in a vase with 1 litre of solution. The solution was either tap water or an aqueous base solution containing 10 g/1 of a composition containing 94.66% glucose, 5% citric acid, 0.34% conventional biocides. […] The vases with flowers were placed under 12 per 24 hours of 1000 lux, at 20° C.

glucose oxidase [GOX]
FL (flower life) [1]: 12.7 days | CFU (bacterial contamination after 7 days) (bacterial contamination): 4,400 1000 CFU/g stem | effect on bacterial contamination (in words) (bacterial contamination): strong effect

benzalkonium chloride [BZC]
FL (flower life) [1]: 12.0 days | CFU (bacterial contamination after 7 days) (bacterial contamination): 900 1000 CFU/g stem | effect on bacterial contamination (in words) (bacterial contamination): strong effect
